{"source": "patent US4443619A", "about": "“Chlorocitric acids” (Hoffmann-La Roche Inc., priority 1981, dated 1984)", "test_system": "Stomach Emptying", "experiment": "Effect on stomach emptying ([14C]glucose load) in rats (Example 25)", "type": "in vivo", "details": "0.33 mmoles/kg oral, 60 min after [14C]glucose load, mean ± S.E.", "protocol": "Rats were trained to consume a 3 hr 70% glucose meal from 8 a.m. to 11 a.m. daily. On the experimental day, compounds were administered orally by intubation 30 min before a [^14 C]glucose load was given also by intubation. […] Sixty minutes later the rats were killed by decapitation; blood and stomachs were collected on ice.\nData are expressed as follows: dpm×10^3 per ml of serum and dpm×10^3 per stomach."}
{"smiles": "O=C(O)C[C@@](O)(C(=O)O)[C@@H](Cl)C(=O)O", "note": "[(-)-threo-Chlorocitric acid, (-)-threo-chlorocitric acid]", "values": [{"measurement": "Serum, total per ml", "result": "1.9 ± 0.4", "unit": "dpm × 10^3"}, {"measurement": "Stomach Contents, total per stomach", "result": "2760 ± 69", "unit": "dpm × 10^3"}]}
